# Read-outs that look alike come from different tables or passages of the source. Square brackets hold non-standard residues; d marks the D form. Peptide text beside a SMILES is read from it. * marks the point of attachment. Adamantane1carbonyl = O=C(C12CC3CC(CC(C3)C1)C2)*; Oic = O=C(O)[C@@H]1C[C@@H]2CCCC[C@@H]2N1; dIgl = N[C@@H](C(=O)O)C1Cc2ccccc2C1; Hyp = O=C(O)[C@@H]1C[C@@H](O)CN1
# Legend:
# B1 receptors [1] = molecular target: T1, B1 receptors (Canis lupus familiaris, UniProt Q9BDQ5); test: Dog blood pressure, hypotensive response to des-Arg9-BK; assay type: in vivo; details: anaesthetized dog, i.v. infusion, des-Arg9-BK challenge, n=3
# T1 construct: Mongrel dogs of either sex, weight range 10-15 kg were used; from tissue; host or cells: anaesthetized mongrel dog, whole animal
# T1 sequence (Q9BDQ5 1-350): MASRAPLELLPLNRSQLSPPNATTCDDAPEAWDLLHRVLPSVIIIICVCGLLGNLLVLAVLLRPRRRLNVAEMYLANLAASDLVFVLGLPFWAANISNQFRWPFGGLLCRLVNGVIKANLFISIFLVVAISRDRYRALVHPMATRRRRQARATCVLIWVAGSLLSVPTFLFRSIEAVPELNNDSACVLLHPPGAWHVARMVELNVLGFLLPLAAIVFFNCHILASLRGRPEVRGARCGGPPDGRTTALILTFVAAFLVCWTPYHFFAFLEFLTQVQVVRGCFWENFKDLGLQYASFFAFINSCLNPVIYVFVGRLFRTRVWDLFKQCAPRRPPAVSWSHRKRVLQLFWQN
# B1 receptors [2] = molecular target: T2, B1 receptors (Oryctolagus cuniculus, UniProt P48748); test: B1 receptor bioassay, rabbit aorta strips contracted with des-Arg9-BK; assay type: cell-based; details: 50% reduction of sustained contraction to 10^-7 M des-Arg9-BK; read-out: Rabbit Aorta p IC50 B1 receptors (converted)
# T2 construct: The thorax was opened and the thoracic aorta carefully removed; from tissue; host or cells: rabbit thoracic aorta spiral strips
# T2 sequence (P48748 1-352): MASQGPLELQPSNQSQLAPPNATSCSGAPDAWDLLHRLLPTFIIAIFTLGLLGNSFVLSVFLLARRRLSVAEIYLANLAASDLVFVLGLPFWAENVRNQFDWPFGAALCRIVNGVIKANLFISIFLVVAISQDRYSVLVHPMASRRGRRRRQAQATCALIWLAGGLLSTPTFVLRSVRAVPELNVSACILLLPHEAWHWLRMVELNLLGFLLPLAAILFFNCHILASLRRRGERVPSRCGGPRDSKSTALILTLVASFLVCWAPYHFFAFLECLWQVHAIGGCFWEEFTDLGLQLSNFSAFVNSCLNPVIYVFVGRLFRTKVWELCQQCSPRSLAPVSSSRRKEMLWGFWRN
# Method: Male New Zealand white rabbits, weight range 2-3 kg, were killed by an overdose of pentobarbital i.v. The thorax was opened and the thoracic aorta carefully removed. […] The tissues were placed under 1 gm isometric tension and allowed to equilibrate for 1H. At time 1h, a concentration-effect curve was constructed to the selective B1 agonist des-Arg^9 -BK. This was repeated at time 3 hours. […] Once the contraction was sustained, the compound to be assayed was applied to the tissue bath in a cumulative manner. The concentration of the compound which produced a 50% reduction of the sustained contraction was calculated. The negative logarithm of this concentration was calculated and expressed as the […].
# B2 receptors = B2 receptors (Canis lupus familiaris, UniProt Q9BDQ4); details: anaesthetized dog, i.v. infusion, BK challenge, n=3
# Sequence of B2 receptors (Q9BDQ4 1-392): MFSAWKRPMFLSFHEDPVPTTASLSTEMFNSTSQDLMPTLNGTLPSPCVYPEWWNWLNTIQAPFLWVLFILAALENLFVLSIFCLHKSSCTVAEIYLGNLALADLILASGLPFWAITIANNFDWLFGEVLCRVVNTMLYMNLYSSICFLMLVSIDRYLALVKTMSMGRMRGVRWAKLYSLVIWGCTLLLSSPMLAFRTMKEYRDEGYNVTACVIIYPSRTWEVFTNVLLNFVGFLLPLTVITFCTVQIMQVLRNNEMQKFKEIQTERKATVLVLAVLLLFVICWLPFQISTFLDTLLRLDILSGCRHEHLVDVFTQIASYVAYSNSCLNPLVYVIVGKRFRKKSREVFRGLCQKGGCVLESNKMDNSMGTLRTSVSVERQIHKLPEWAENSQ
# Method: Mongrel dogs of either sex, weight range 10-15 kg were used. These were anaesthetized with pentobarbital, 30 mg/kg i.v., and catheters were placed in one femoral artery and both femoral veins for the recording of blood pressure and infusion and injection of compounds.
# guinea pig ileum = system: guinea pig ileum
# From the text: (§1) A change of one unit of pA2 value represents an order of magnitude change in potency.
# (§2) On isolated smooth muscles, agonist potency is given as percent of BK potency; antagonist potency is given as pA2, and is underlined. In blood pressure assays, the number is the dose of peptide in micrograms that causes 50% reduction in the effect of BK intraarterially administered as a bolus mixture in a 500 g male rat; Ag indicates unquantitated agonist activity; Ant indicates unquantitated antagonist activity.
# [3] = system: hypotensive action of bradykinin; test: Blood pressure in the anesthetized rat: inhibition of hypotensive action of bradykinin; assay type: in vivo; details: intraarterial bolus mixture with BK, 500 g male rat; indicated approximately
# From the text: Potencies for the antagonists in this assay are not reported precisely, but rather are indicated approximately.
# as §2
# isolated rat uterus = system: isolated rat uterus
# From the text: as §1, §2
# Human B2 receptors = molecular target: T3, Human B2 receptors (Homo sapiens, UniProt P30411); test: Human B2 binding, cloned receptor in CHO cell membranes, 3H-bradykinin; details: CHO clone S34f membranes, 0.3 nM 3H-Bradykinin, room temperature 45 min; read-out: Human Receptor Clone B2 receptor binding (Ki) (converted)
# T3 construct: expressed in transfected cells; membranes used
# T3 sequence (P30411 1-364 isoform P30411-2): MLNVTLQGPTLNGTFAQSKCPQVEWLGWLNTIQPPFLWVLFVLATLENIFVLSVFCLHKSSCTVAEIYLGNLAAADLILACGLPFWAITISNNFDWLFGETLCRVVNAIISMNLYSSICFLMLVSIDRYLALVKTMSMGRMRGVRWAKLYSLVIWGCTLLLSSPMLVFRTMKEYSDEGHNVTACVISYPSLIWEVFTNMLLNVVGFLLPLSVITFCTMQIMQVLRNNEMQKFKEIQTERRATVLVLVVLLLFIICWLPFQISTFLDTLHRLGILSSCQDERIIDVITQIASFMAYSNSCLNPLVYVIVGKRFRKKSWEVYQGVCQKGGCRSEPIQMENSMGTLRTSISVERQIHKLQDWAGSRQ
# From the text: Human B2 receptors were cloned and expressed in Chinese hamster ovary cells. RNA was isolated from human lung fibroblasts (CCD-16 LU obtained from the ATCC) using the method of Chirgwin et al (Biochemistry 18:5294 (1979)). The RNA was transcribed into cDNA using MMLV reverse transcriptase, the primer […] and the procedure of Maniatis (Molecular Cloning Cold Spring Harbor Laboratory (1982)). The human B2 receptor cDNA was selectively amplified using nested PCR. The first round PCR used the two primers […] and […] and Taq DNA polymerase (Promega). Twenty-five rounds of PCR were done using the following conditions: 94° C., 1 minute for denaturation, 50° C., 1 minute for annealing followed by 72° C., 3 minutes for extension. Excess primers were removed with a Centricon 30 miniconcentrator. A portion of this first round reaction was used as a template in a second round of PCR using the following primers […] and […]. The number of rounds of PCR and the conditions were the same as those used for the first round. The DNA obtained after this second round was digested with the restriction enzymes Hind III and Xba I using standard methodology. Cesium chloride-purified pRc/CMV (Invitrogen) was also digested with Hind III and Xba I using standard methodology. The products of the two digests were resolved on a 1% low melt agarose gel. The human B2 receptor DNA (approximately 1.1 kb) and the pRc/CMV DNA (approximately 5.5 kb) were excised from the gel. The gel slices containing these DNAs were heated at 65° C. and aliquots combined in a reaction containing T4 DNA ligase. The reaction was incubated overnight at 15° C.
# An aliquot of this reaction was used to transform frozen competent E. coli DH5α cells (GibcoBRL). Transformants containing the human B2 receptor DNA were selected on LB+amp plates. One of the transformants was selected and the sequence of the human B2 receptor DNA insert determined using the Sequenase enzyme (United States Biochemical) according to the manufacturer's instructions. This sequence was compared to the sequence of Hess et al (Biochemical and Biophysical Research Communications 184:260 1992)). […] The human BK2 receptor-pRc/CMV plasmid was transfected into CHO-k1 cells using the Lipofectamine reagent (GibcoBRL).
# Cells containing the receptor were grown to confluence and harvested by scraping into PBS and homogenized. Membranes were prepared by centrifugation in 25 mM TES pH6.8 containing 1 mM 1.10 Phenanthroline. The final pellet was resuspended in assay buffer (25 mM TES, 1 mM 1.10 Phenanthroline, 1 mM DTT, […] Captopril, 0.1% BSA pH=6.8) and frozen. […] Incubation was carried out at room temperature for 45 min. The assay was terminated by filtration through a polyethylenimine soaked G-A filter. Radioactivity was measured on a Wallac 1450 MicroBeta LSC.
# The Kd for the receptor was determined by kinetic analysis of on and off rates utilizing a single exponential decay off rate. Ki 's for compounds were calculated using the following equation: Ki =IC50 /(1+[L]/Kd), where L=free ligand concentration.
# [4] = guinea pig ileum, vs double ED50 dose of bradykinin
Compound,"Mean ED50, B1 receptor-mediated hypotensive response (B1 receptors [1]) [mg/kg/min]",IC50 (B1 receptors [2]) [nM],"Mean ED50, B2 receptor-mediated hypotensive response (B2 receptors) [mg/kg/min]","Ileum Activity, antagonist potency given as pA2 (guinea pig ileum)",Blood Pressure: dose of peptide that causes 50% reduction in the effect of BK [3] [micrograms],"Uterus Activity, antagonist potency given as pA2 (isolated rat uterus)","Uterus Activity, agonist potency given as percent of BK potency (isolated rat uterus; isolated rat uterus) [%]","Ileum Activity, antagonist potency given as pA2 (guinea pig ileum; [4])",Ki (Human B2 receptors) [nM]
"N=C(N)NCCC[C@@H](N)C(=O)N[C@@H](CCCNC(=N)N)C(=O)N1CCC[C@H]1C(=O)N1C[C@H](O)C[C@H]1C(=O)NCC(=O)N[C@@H](Cc1cccs1)C(=O)N[C@@H](CO)C(=O)N[C@@H](C(=O)N1[C@H](C(=O)N[C@@H](CCCNC(=N)N)C(=O)O)C[C@@H]2CCCC[C@@H]21)C1Cc2ccccc2C1 [Compound 7, DArg-Arg-Pro-Hyp-Gly-Thi-Ser-DIglb-Oic-Arg]",0.35,141,0.17,7.4,,,,,
DArg-Arg-Pro-Hyp-Gly-Thi-Ser-DIglb-Dic-Arg [Compound 41],,,,,50,,,,
"N=C(N)NCCC[C@@H](N)C(=O)N[C@@H](CCCNC(=N)N)C(=O)N1CCC[C@H]1C(=O)N1C[C@H](O)C[C@H]1C(=O)NCC(=O)N[C@H](C(=O)N[C@@H](CO)C(=O)N[C@@H](C(=O)N1[C@H](C(=O)N[C@@H](CCCNC(=N)N)C(=O)O)C[C@@H]2CCCC[C@@H]21)C1Cc2ccccc2C1)C1Cc2ccccc2C1 [Compound 1, DArg-Arg-Pro-Hyp-Gly-Iglb-Ser-DIglb-O ic-Arg]",0.24,251,0.03,7.9,,8.5,,,
"N=C(N)NCCC[C@@H](N)C(=O)N[C@@H](CCCNC(=N)N)C(=O)N1CCC[C@H]1C(=O)N1C[C@H](O)C[C@H]1C(=O)NCC(=O)N[C@@H](Cc1cccs1)C(=O)N[C@@H](CO)C(=O)N[C@@H](C(=O)N(CC(=O)N[C@@H](CCCNC(=N)N)C(=O)O)C1Cc2ccccc2C1)C1Cc2ccccc2C1 [Compound 28, DArg-Arg-Pro-Hyp-Gly-Thi-Ser-DIgl-Nigb-Arg]",,,,,0.05,,48.6,6.5,
Aca-DArg-Arg-Pro-Hyp-Gly-Thi-Ser-DHigb-Oic-Arg [Compound 124],,,,,0,,,7.7,
"COc1cc(C=CC(=O)N[C@H](CCCNC(=N)N)C(=O)N[C@@H](CCCNC(=N)N)C(=O)N2CCC[C@H]2C(=O)N2C[C@H](O)C[C@H]2C(=O)NCC(=O)N[C@@H](Cc2cccs2)C(=O)N[C@@H](CO)C(=O)N[C@@H](C(=O)N2[C@H](C(=O)N[C@@H](CCCNC(=N)N)C(=O)O)C[C@@H]3CCCC[C@@H]32)C2Cc3ccccc3C2)cc(OC)c1O [Compound 60, Sin-DArg-Arg-Pro-Hyp-Gly-Thi-Ser-DIglb-Oic-Arg]",,2090,,7.3,,8.3,,,0.0692
"N=C(N)NCCC[C@H](NC(=O)[C@@H]1C[C@@H]2CCCC[C@@H]2N1C(=O)[C@H](NC(=O)[C@H](CO)NC(=O)[C@H](Cc1ccccc1)NC(=O)CNC(=O)[C@@H]1C[C@@H](O)CN1C(=O)[C@@H]1CCCN1C(=O)[C@H](CCCNC(=N)N)NC(=O)[C@@H](CCCNC(=N)N)NC(=O)C12CC3CC(CC(C3)C1)C2)C1Cc2ccccc2C1)C(=O)O [Compound 53, Aca-DArg-Arg-Pro-Hyp-Gly-Phe-Ser-DIglb-Oic-Arg] (Adamantane1carbonyl-[dR]RP[Hyp]GFS[dIgl][Oic]R-OH)",,1260,,7.4,,8.2,,,0.0141
